For test [1], the target named is Translocator protein (Rattus norvegicus, UniProt P16257). Nature of the test: Displacement of [3H]PK11195 from TSPO in rat cortex. Background: Displacement assays read how much labelled ligand stays bound in the presence of the test substance.
The target in test [2] is Translocator protein (Homo sapiens) (UniProt P30536). As to the kind of experiment: Binding affinity to TSPO in parietal lobe of healthy human. The format is tissue-based. To be noted: tested as the 125I-labelled form.
Test [3] shares this target. As to the kind of experiment: Binding affinity to TSPO in white matter of healthy human. In kind it is tissue-based. To be noted: tested as the 125I-labelled form.
Test [4] shares this target. Nature of the test: Binding affinity to TSPO in temporal lobe of healthy human. In kind it is tissue-based. The conditions noted are these: tested as the 125I-labelled form.
Test [5] shares this target. As to the kind of experiment: Binding affinity to TSPO in parietal lobe of patient with Alzheimer's disease. The conditions noted are these: tested as the 125I-labelled form.
The target is the same in test [6]. Nature of the test: Binding affinity to TSPO in white matter of patient with Alzheimer's disease. In kind it is tissue-based. The conditions noted are these: tested as the 125I-labelled form.
Test [7] shares this target. Nature of the test: Binding affinity to TSPO in temporal lobe of patient with Alzheimer's disease. To be noted: tested as the 125I-labelled form.
The target is the same in test [8]. As to the kind of experiment: Displacement of [3H]Ro5-4864 from TSPO.
The species entered for test [9] is Rattus norvegicus. Nature of the test: Displacement of [3H]Ro5-4864 from GABAA receptor in rat brain membrane. The format is cell membranes.
Test [10] concerns the target Translocator protein (Mus musculus) (UniProt P50637). As to the kind of experiment: Binding affinity to mitochondrial TSPO in mouse MA10 cells in presence of human chorionic gonadotropin. The format is cell-based.
Test [11] concerns U-937. As to the kind of experiment: Antiapoptotic activity against TNF-alpha-induced apoptosis in human U937 cells. In kind it is functional.
For test [12], the system named is U-937. As to the kind of experiment: Induction of apoptosis in human U937 cells. In kind it is functional.
Test [13] has as its target Translocator protein (Homo sapiens) (UniProt P30536). Nature of the test: Displacement of [3H]Ro5-4864 from TSPO in caudate nucleus of patient with Huntington's disease. The conditions noted are these: tested as the 3H-labelled form.
For test [14] the target is unchanged. Nature of the test: Displacement of [3H]Ro5-4864 from TSPO in putamen of healthy human. The conditions noted are these: tested as the 3H-labelled form.
The species entered for test [15] is Rattus norvegicus. Nature of the test: Displacement of [3H]diazepam from central benzodiazepine receptor in Wistar rat […] by scintillation counting.

Where only a bound is given, the exact number is not on record here.

Translocator protein (Homo sapiens), sequence (P30536 whole entry): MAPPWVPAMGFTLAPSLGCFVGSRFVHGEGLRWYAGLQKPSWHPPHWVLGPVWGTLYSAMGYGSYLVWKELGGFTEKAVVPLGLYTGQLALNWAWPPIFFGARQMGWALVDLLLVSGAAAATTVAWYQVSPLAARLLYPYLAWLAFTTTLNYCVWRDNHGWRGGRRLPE
Translocator protein, sequence (P16257 whole entry, looked up): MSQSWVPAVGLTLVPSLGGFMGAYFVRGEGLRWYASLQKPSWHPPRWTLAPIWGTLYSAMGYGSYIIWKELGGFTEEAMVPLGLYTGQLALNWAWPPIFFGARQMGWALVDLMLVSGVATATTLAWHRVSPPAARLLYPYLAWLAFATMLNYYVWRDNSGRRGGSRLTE
Translocator protein (Mus musculus), sequence (P50637 whole entry, looked up): as the sequence (P16257 whole entry, looked up) above, with S2P, Q3E, I67V, E77D, V110A, M113L, M149V, T168P counted along it

Turning to `CCCCCCN(CCCCCC)C(=O)Cc1c(-c2ccc(F)cc2)[nH]c2ccccc12`, the affinity in test [1], expressed as Ki, was 5 nM.

As to `CC(=O)N(Cc1ccccc1OC(C)C)c1ccc(Cl)cc1Oc1ccccc1`, the Ki (as a rule, a measure of affinity in units of concentration, obtained from inhibition or displacement) in test [1] was found to be 0.92 nM.

For the compound `COc1ccc(OC)c(CN(C(C)=O)c2cc(I)ccc2Oc2ccccc2)c1`, the Bmax in [2] was 0.32 fmol/mg; in test [3], 0.24 fmol/mg; in test [4], 0.22 fmol/mg; in test [5] it was 1.26 fmol/mg; in test [6], 1.12 fmol/mg; in test [7] it was 1.02 fmol/mg.

Consider `CN1C(=O)CN=C(c2ccc(Cl)cc2)c2cc(Cl)ccc21` [RO-54864], for which the Activity in [8] was 7.3 nM; in test [9] it was 163 µM; in test [10], 0.2 nM; in [11], 10 µM; in test [12] it was greater than 10 µM. The Bmax in test [13] was determined as 61.7 fmol/mg; in test [14], 40.7 fmol/mg.

In turn, `CN1C(=O)CN=C(c2ccccc2)c2cc(Cl)ccc21` registered an Activity in test [15] of 40 nM.

These data come from ChEMBL document CHEMBL1143368, “The translocator protein (18 kDa): central nervous system disease and drug design” (J Med Chem, 2009).
